Source: patent US12427151B2, “Compositions and method of treating cancer” (The Regents of the University of California, priority 2017, dated 2025)
Converted amounts (≈) assume the structure as drawn.

What was measured:
P. aeruginosa ATCC14213 = assay: MBC determination; type: cell-based; conditions: Pseudomonas aeruginosa, 3-log reduction, 24 hour, 37° C., half strength MHB in PBS
Description: (§1) To determine MBC, bacteria were cultured in TSB (Staphylococcus), THB (Streptococcus) or Nutrient broth (P. aeruginosa and E. coli) by reaching exponential phase (OD600=0.5-0.8). […] After incubation, the number of viable bacteria was measured by counting CFU after spreading 10-fold serial dilutions of bacteria on suitable agar plates. MBC was determined as a 3-log reduction (99.9%) of viable bacteria after 24 hour incubation.
(§2) Antimicrobial activity of 6-HAP in vitro. To examine the specificity of 6-HAP for various bacteria, minimal bactericidal concentrations (MBCs) were determined according to dose-dependent killing curves at 24 hrs of incubation in vitro (Table 1). 6-HAP killed or suppressed growth of several major skin pathogens including GAS (NZ131), group B Streptococcus (GBS) (DK23), methicillin-sensitive S. aureus (ATCC35556), methicillin-resistant S. aureus (MRSA) strains (USA300 and Sanger252), Pseudomonas aeruginosa (P. aeruginosa) (ATCC14213) in vitro. […] S. epidermidis (ATCC12228) was also resistant to 6-HAP.

S. aureus ATCC35556 = assay: MBC determination; type: cell-based; conditions: Staphylococcus aureus, 3-log reduction, 24 hour, 37° C., half strength MHB in PBS
Description: as §1, §2

S. epidermidis ATCC12228 = assay: MBC determination; type: cell-based; conditions: Staphylococcus epidermidis, 3-log reduction, 24 hour, 37° C., half strength MHB in PBS
Description: as §1, §2

S. hominis ATCC27844 = assay: MBC determination; type: cell-based; conditions: Staphylococcus hominis, 3-log reduction, 24 hour, 37° C., half strength MHB in PBS
Description: as §1, §2

E. coli ATCC25922 = assay: MBC determination; type: cell-based; conditions: Escherichia coli, 3-log reduction, 24 hour, 37° C., half strength MHB in PBS
Description: as §1, §2

[1] = test system: S. epidermidis (ATCC12228); assay: BrdU incorporation assay in bacteria; type: cell-based; conditions: 6-HAP 25 μg/mL, 60 min
Description: (a) Time course killing of GAS in THB containing 6-HAP (25 μg/mL), mitomycin C (5 μg/mL), or LL-37 (10 μM). At each indicated time point, live GAS in the media was measured by counting CFU on an agar plate. The data represent mean±SE of four individual experiments. (b) Membrane permeability of GAS incubated in THB containing 6-HAP (25 μg/mL), mitomycin C (5 μg/mL) and LL-37 (10 μM) for 1 hr. The bacteria with compromised plasma membranes (Red) can be distinguished from those with intact membranes (Green). (c) BrdU incorporation into nascent DNA of GAS after incubation with 6-HAP (25 μg/mL) or mitomycin C (5 μg/mL) in THB containing BrdU (10 μM) for 30 or 60 min. (d) BrdU incorporation into nascent DNA of S. epidermidis ATCC12228 after incubation with 6-HAP (25 μg/mL) or mitomycin C (5 μg/mL) in THB containing BrdU (10 μM) for 60 min. The data represent mean±SE of five individual experiments (*P<0.05 and **P<0.01 by Student's t-test vs vehicle control). (e-f) Capacity of 6-HAP to block in vitro DNA extension by Klenow fragment polymerase. […] Extension reaction was analyzed on a 20% acrylamide gel by electrophoresis (f). […] GAS survival was measured by counting CFU. […]
BrdU incorporation assay. […] BrdU incorporation into nascent DNA was measured in a time-dependent manner using BrdU incorporation assay kit (Roche) according to the manual.

P. acnes ATCC6919 = assay: MBC determination; type: cell-based, Propionibacterium acnes; conditions: Cutibacterium acnes, 3-log reduction, 24 hour, 37° C., half strength MHB in PBS

## ONc1ncnc2nc[nH]c12 [6-HAP, 6-N-hydroxyaminopurine]
P. aeruginosa ATCC14213
  MBC: 1.56 µg/mL (≈ 10.3 µM)
S. aureus ATCC35556
  MBC: 6.25 µg/mL (≈ 41.4 µM)
S. epidermidis ATCC12228
  MBC: > 50 µg/mL
S. hominis ATCC27844
  MBC: 12.5 µg/mL (≈ 82.7 µM)
E. coli ATCC25922
  MBC: 50 µg/mL (≈ 331 µM)
[1]
  BrdU incorporation in S. epidermidis: did not affect
P. acnes ATCC6919
  MBC: > 100 µg/mL
